Experiments:
Format in all cases: in vivo
[1] = test system: MATIN: Matricaria inodora; assay: Pre-emergence herbicide efficacy at 1280 g/ha, MATIN; details: visual scoring after about 3 weeks vs untreated controls
From the text: Seeds of mono- and dicotyledonous weed plants were placed in plastic pots in sandy loam soil (doubly sown with one species each of mono- or dicotyledonous weed plants per pot) and covered with soil. The compounds of the invention, formulated in the form of wettable powders (WP) or as emulsion concentrates (EC), were then applied to the surface of the covering soil as aqueous suspension or emulsion with addition of 0.5% additive at a water application rate of 600 litres per hectare (converted). After the treatment, the pots were placed in a greenhouse and kept under good growth conditions for the test plants. After about 3 weeks, the efficacy of the preparations was scored visually in comparison with untreated controls as percentages. For example, 100% activity=the plants have died, 0% activity=like control plants. Tables C1 to C12 below show the effects of selected compounds of the general formula (I) according to Table 1 on various harmful plants and at an application rate corresponding to 1280 g/ha, which were obtained by the trial procedure specified above.

[2] = test system: ABUTH: Abutilon theophrasti; assay: Post-emergence herbicidal efficacy at 1280 g/ha, ABUTH; details: rated visually after about 3 weeks vs untreated controls, 100% = plants have died, 0% = like control plants
Procedure, shortened: (§1)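 Plants treated 2–3 weeks post-sowing, one-leaf stage, foliar spray of WP or EC preparations with 0.5% additive at a water rate equivalent to 600 L/ha. Kept under optimum greenhouse conditions ~3 weeks, then scored visually on a 0–100% scale.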

[3] = test system: STEME: Stellaria media; assay: Pre-emergence herbicide efficacy at 1280 g/ha, STEME; details: visual scoring vs untreated controls
Procedure, shortened: (§2)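 Visual scoring after about 3 weeks in the greenhouse, as percent activity relative to untreated pots, where 0% matches controls and 100% means dead plants. Treatment was pre-emergence: WP or EC formulations sprayed onto soil covering the sown seeds, 600 L/ha water plus 0.5% additive.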

[4] = test system: KCHSC: Kochia scoparia; assay: Post-emergence herbicidal efficacy at 1280 g/ha, KCHSC; details: visual rating about 3 weeks after treatment vs untreated controls
Procedure, shortened: as §1

[5] = test system: ABUTH: Abutilon theophrasti; assay: Pre-emergence herbicide efficacy at 1280 g/ha, ABUTH; details: visual scoring after about 3 weeks vs untreated controls
Procedure, shortened: as §2

[6] = test system: POAAN: Poa annua; assay: Pre-emergence herbicide efficacy at 1280 g/ha, POAAN; details: visual scoring after about 3 weeks vs untreated controls
Procedure, shortened: as §2

[7] = test system: VERPE: Veronica persica; assay: Pre-emergence herbicide efficacy at 1280 g/ha, VERPE; details: visual scoring vs untreated controls
Procedure, shortened: as §2

[8] = test system: KCHSC: Kochia scoparia; assay: Pre-emergence herbicide efficacy at 1280 g/ha, KCHSC; details: visual scoring after about 3 weeks vs untreated controls
Procedure, shortened: as §2

[9] = test system: VERPE: Veronica persica; assay: Post-emergence herbicidal efficacy at 1280 g/ha, VERPE; details: visual rating about 3 weeks after treatment vs untreated controls
Procedure, shortened: as §1

[10] = test system: DIGSA: Digitaria sanguinalis; assay: Pre-emergence herbicide efficacy at 1280 g/ha, DIGSA; details: visual scoring after about 3 weeks vs untreated controls
Procedure, shortened: as §2

[11] = test system: SETVI: Setaria viridis; assay: Pre-emergence herbicide efficacy at 1280 g/ha, SETVI; details: visual scoring vs untreated controls
Procedure, shortened: as §2

[12] = test system: AMARE: Amaranthus retroflexus; assay: Pre-emergence herbicide efficacy at 1280 g/ha, AMARE; details: visual scoring after about 3 weeks vs untreated controls
Procedure, shortened: as §2

[13] = test system: POAAN: Poa annua; assay: Post-emergence herbicidal efficacy at 1280 g/ha, POAAN; details: visual rating about 3 weeks after treatment vs untreated controls
Procedure, shortened: as §1

[14] = test system: ECHCG: Echinochloa crus-galli; assay: Pre-emergence herbicide efficacy at 1280 g/ha, ECHCG; details: visual scoring after about 3 weeks vs untreated controls
Procedure, shortened: as §2

[15] = test system: STEME: Stellaria media; assay: Post-emergence herbicidal efficacy at 1280 g/ha, STEME; details: visual rating about 3 weeks after treatment vs untreated controls
Procedure, shortened: as §1

[16] = test system: AMARE: Amaranthus retroflexus; assay: Post-emergence herbicidal efficacy at 1280 g/ha, AMARE; details: rated visually after about 3 weeks vs untreated controls, 100% = plants have died, 0% = like control plants
Procedure, shortened: as §1

[17] = test system: SETVI: Setaria viridis; assay: Post-emergence herbicidal efficacy at 1280 g/ha, SETVI; details: visual rating about 3 weeks after treatment vs untreated controls
Procedure, shortened: as §1

[18] = test system: ECHCG: Echinochloa crus-galli; assay: Post-emergence herbicidal efficacy at 1280 g/ha, ECHCG; details: rated visually after about 3 weeks vs untreated controls, 100% = plants have died, 0% = like control plants
Protocol: (§3) Seeds of mono- and dicotyledonous weed plants were placed in plastic pots in sandy loam soil (doubly sown with in each case one species of mono- or dicotyledonous weed plants per pot), covered with soil and cultivated in a greenhouse under controlled growth conditions. 2 to 3 weeks after sowing, the test plants were treated at the one-leaf stage. The compounds of the invention, formulated in the form of wettable powders (WP) or as emulsion concentrates (EC), were applied to the green parts of the plants as aqueous suspension or emulsion with addition of 0.5% additive at a water application rate equivalent to 600 litres per hectare. After the test plants had been kept in the greenhouse under optimum growth conditions for about 3 weeks, the activity of the preparations was rated visually in comparison to untreated controls. For example, 100% activity=the plants have died, 0% activity=like control plants. Tables A1 to A12 below show the effects of selected compounds of the general formula (I) according to Table 1 on various harmful plants and at an application rate corresponding to 1280 g/ha, which were obtained by the trial procedure specified above.

[19] = test system: DIGSA: Digitaria sanguinalis; assay: Post-emergence herbicidal efficacy at 1280 g/ha, DIGSA; details: rated visually after about 3 weeks vs untreated controls, 100% = plants have died, 0% = like control plants
Protocol: as §3

Fc1cnc(Cc2ccccc2-n2cc(C(F)(F)F)cn2)nc1 [Example 1-129]
Pre-emergence efficacy against MATIN [1]: 100% | Post-emergence efficacy at 1280 g/ha against ABUTH in % [2]: 100% | Pre-emergence efficacy against STEME in % [3]: 100% | Post-emergence efficacy against KCHSC [4]: 100% | Pre-emergence efficacy against ABUTH [5]: 100% | Pre-emergence efficacy against POAAN [6]: 90% | Pre-emergence efficacy against VERPE in % [7]: 90% | Pre-emergence efficacy against KCHSC [8]: 90% | Post-emergence efficacy against VERPE [9]: 90% | Pre-emergence efficacy against DIGSA [10]: 90% | Pre-emergence efficacy against SETVI in % [11]: 90% | Pre-emergence efficacy against AMARE [12]: 100% | Post-emergence efficacy against POAAN [13]: 100% | Pre-emergence efficacy against ECHCG [14]: 100% | Post-emergence efficacy against STEME [15]: 100% | Post-emergence efficacy at 1280 g/ha against AMARE in % [16]: 100%

Fc1cnc(Oc2ccccc2Cc2ccc(Cl)cn2)nc1 [Example 1-100]
Pre-emergence efficacy against MATIN [1]: 100% | Post-emergence efficacy at 1280 g/ha against ABUTH in % [2]: 90% | Pre-emergence efficacy against STEME in % [3]: 100% | Post-emergence efficacy against KCHSC [4]: 100% | Pre-emergence efficacy against ABUTH [5]: 100% | Pre-emergence efficacy against POAAN [6]: 100% | Pre-emergence efficacy against VERPE in % [7]: 100% | Pre-emergence efficacy against KCHSC [8]: 100% | Post-emergence efficacy against SETVI [17]: 90% | Post-emergence efficacy against VERPE [9]: 100% | Pre-emergence efficacy against DIGSA [10]: 100% | Pre-emergence efficacy against SETVI in % [11]: 100% | Pre-emergence efficacy against AMARE [12]: 100% | Post-emergence efficacy against POAAN [13]: 100% | Pre-emergence efficacy against ECHCG [14]: 100% | Post-emergence efficacy against STEME [15]: 90% | Post-emergence efficacy at 1280 g/ha against AMARE in % [16]: 100%

FC(F)(F)CCSc1ccccc1Cc1ncc(Cl)cn1 [Example 1-112]
Post-emergence efficacy at 1280 g/ha against ABUTH in % [2]: 100% | Post-emergence efficacy at 1280 g/ha against ECHCG in % [18]: 90% | Pre-emergence efficacy against STEME in % [3]: 90% | Post-emergence efficacy against KCHSC [4]: 100% | Pre-emergence efficacy against ABUTH [5]: 90% | Pre-emergence efficacy against POAAN [6]: 90% | Pre-emergence efficacy against VERPE in % [7]: 100% | Pre-emergence efficacy against KCHSC [8]: 100% | Post-emergence efficacy against SETVI [17]: 90% | Post-emergence efficacy against VERPE [9]: 100% | Pre-emergence efficacy against DIGSA [10]: 100% | Post-emergence efficacy at 1280 g/ha against DIGSA in % [19]: 90% | Pre-emergence efficacy against SETVI in % [11]: 90% | Pre-emergence efficacy against AMARE [12]: 100% | Post-emergence efficacy against POAAN [13]: 100% | Pre-emergence efficacy against ECHCG [14]: 100% | Post-emergence efficacy against STEME [15]: 100% | Post-emergence efficacy at 1280 g/ha against AMARE in % [16]: 100%

Fc1cnc(Cc2ccccc2Oc2ncc(F)cn2)nc1 [Example 1-89]
Pre-emergence efficacy against MATIN [1]: 100% | Post-emergence efficacy at 1280 g/ha against ABUTH in % [2]: 90% | Pre-emergence efficacy against STEME in % [3]: 90% | Post-emergence efficacy against KCHSC [4]: 100% | Pre-emergence efficacy against ABUTH [5]: 100% | Pre-emergence efficacy against POAAN [6]: 100% | Pre-emergence efficacy against VERPE in % [7]: 100% | Pre-emergence efficacy against KCHSC [8]: 100% | Post-emergence efficacy against VERPE [9]: 100% | Pre-emergence efficacy against DIGSA [10]: 100% | Pre-emergence efficacy against SETVI in % [11]: 90% | Pre-emergence efficacy against AMARE [12]: 100% | Post-emergence efficacy at 1280 g/ha against AMARE in % [16]: 100%

Fc1ccc(Cc2ccccc2Oc2ncc(F)cn2)nc1 [Example 1-93]
Pre-emergence efficacy against MATIN [1]: 100% | Post-emergence efficacy at 1280 g/ha against ABUTH in % [2]: 90% | Pre-emergence efficacy against STEME in % [3]: 100% | Post-emergence efficacy against KCHSC [4]: 100% | Pre-emergence efficacy against ABUTH [5]: 100% | Pre-emergence efficacy against POAAN [6]: 100% | Pre-emergence efficacy against VERPE in % [7]: 100% | Pre-emergence efficacy against KCHSC [8]: 100% | Post-emergence efficacy against VERPE [9]: 100% | Pre-emergence efficacy against DIGSA [10]: 100% | Pre-emergence efficacy against SETVI in % [11]: 100% | Pre-emergence efficacy against AMARE [12]: 100% | Post-emergence efficacy against POAAN [13]: 100% | Pre-emergence efficacy against ECHCG [14]: 100% | Post-emergence efficacy at 1280 g/ha against AMARE in % [16]: 100%

Clc1cnc(Oc2ccccc2Cc2ncccn2)nc1 [Example 1-76]
Pre-emergence efficacy against MATIN [1]: 90% | Pre-emergence efficacy against STEME in % [3]: 90% | Pre-emergence efficacy against ABUTH [5]: 90% | Pre-emergence efficacy against VERPE in % [7]: 90% | Post-emergence efficacy against VERPE [9]: 90% | Pre-emergence efficacy against AMARE [12]: 100% | Post-emergence efficacy at 1280 g/ha against AMARE in % [16]: 90%

— patent US20250221410A1, “SUBSTITUTED 2-C-AZINES AND SALTS THEREOF, AND USE THEREOF AS HERBICIDAL ACTIVE SUBSTANCES” (BAYER AKTIENGESELLSCHAFT, priority 2022, published 2025)
